# Experimental data: PubChem BioAssay AID1963425 (Molecular Pharmacology Branch, DTP, NCI, 2024)
# Several values for one entry are separate records, joined by “and”; a condition that tells them apart may be missing. Identical values can stand only once.
# Tested on: 323965-272-R-J2-PDC complex spheroid growth, % test/control
# Experiment: Anticancer human tumor 323965-272-R-J2-PDC patient-derived pancreatic carcinoma cell line growth inhibition [Asc]
# Conditions: for viability, T/C: stronger effect = lower value
# Method in brief: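 Tumor cells were grown as multicellular spheroids with stromal HUVEC and mesenchymal stem cells and treated singly or in combination. Concentrations fell in half-log steps from the clinical Cmax, or from 10 microM where none was known.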
# [1] = curve of first compound, second compound 0.00949 µM
# [2] = curve of first compound, second compound 0.03 µM
# [3] = curve of first compound, second compound 0.0949 µM
# [4] = curve of first compound, second compound 0.3 µM
# [5] = curve of first compound, second compound 0.949 µM
# [6] = curve of first compound, second compound 3 µM
# [7] = second compound 0.00949 µM, first compound 0.0316 µM
# [8] = second compound 0.00949 µM, first compound 0.1 µM
# [9] = second compound 0.00949 µM, first compound 0.316 µM
# [10] = second compound 0.00949 µM, first compound 1 µM
# [11] = second compound 0.03 µM, first compound 0.0316 µM
# [12] = second compound 0.03 µM, first compound 0.1 µM
# [13] = second compound 0.03 µM, first compound 0.316 µM
# [14] = second compound 0.03 µM, first compound 1 µM
# [15] = second compound 0.0949 µM, first compound 0.0316 µM
# [16] = second compound 0.0949 µM, first compound 0.1 µM
# [17] = second compound 0.0949 µM, first compound 0.316 µM
# [18] = second compound 0.0949 µM, first compound 1 µM
# [19] = second compound 0.3 µM, first compound 0.0316 µM
# [20] = second compound 0.3 µM, first compound 0.1 µM
# [21] = second compound 0.3 µM, first compound 0.316 µM
# [22] = second compound 0.3 µM, first compound 1 µM
# [23] = second compound 0.949 µM, first compound 0.0316 µM
# [24] = second compound 0.949 µM, first compound 0.1 µM
# [25] = second compound 0.949 µM, first compound 0.316 µM
# [26] = second compound 0.949 µM, first compound 1 µM
# [27] = second compound 3 µM, first compound 0.0316 µM
# [28] = second compound 3 µM, first compound 0.1 µM
# [29] = second compound 3 µM, first compound 0.316 µM
# [30] = second compound 3 µM, first compound 1 µM
# 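Note: compound exposure lasted 7 days starting three days after spheroid seeding.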
# 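Throughout, for viability, T/C: 100% = DMSO vehicle control wells with viability set relative to vehicle.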
compound,measurement,setting,value
C=C(F)C(=O)N1CCN(c2nc(OCC3CCCN3C)nc3c2CCN(c2cccc4cccc(Cl)c24)C3)CC1CC#N (centres undefined) + CCN1C(C(=O)NC23CCC(C(=O)O)(CC2)CC3)C(c2cccc(Cl)c2F)C2(C(=O)Nc3cc(Cl)ccc32)C12CCCCC2,IC50,[1],> 10000 nM
same,IC50,[2],5590 nM
same,IC50,[3],5620 nM
same,IC50,[4],5790 nM
same,IC50,[5],5210 nM
same,IC50,[6],4670 nM
same,"viability, T/C",[7],62.2%
same,"viability, T/C",[8],64%
same,"viability, T/C",[9],61.5%
same,"viability, T/C",[10],58.6%
same,"viability, T/C","second compound 0.00949 µM, first compound 3.16 µM",85.7%
same,"viability, T/C","second compound 0.00949 µM, first compound 10 µM",32.8%
same,"viability, T/C",[11],79%
same,"viability, T/C",[12],65.3%
same,"viability, T/C",[13],59.7%
same,"viability, T/C",[14],61.2%
same,"viability, T/C","second compound 0.03 µM, first compound 3.16 µM",81.8%
same,"viability, T/C","second compound 0.03 µM, first compound 10 µM",30.2%
same,"viability, T/C",[15],73.4%
same,"viability, T/C",[16],60%
same,"viability, T/C",[17],60.5%
same,"viability, T/C",[18],63.7%
same,"viability, T/C","second compound 0.0949 µM, first compound 3.16 µM",74.3%
same,"viability, T/C","second compound 0.0949 µM, first compound 10 µM",33.5%
same,"viability, T/C",[19],81.1%
same,"viability, T/C",[20],64.4%
same,"viability, T/C",[21],65%
same,"viability, T/C",[22],66.3%
same,"viability, T/C","second compound 0.3 µM, first compound 3.16 µM",74.8%
same,"viability, T/C","second compound 0.3 µM, first compound 10 µM",31.8%
same,"viability, T/C",[23],73.4%
same,"viability, T/C",[24],65.9%
same,"viability, T/C",[25],63.8%
same,"viability, T/C",[26],62.7%
same,"viability, T/C","second compound 0.949 µM, first compound 3.16 µM",83.8%
same,"viability, T/C","second compound 0.949 µM, first compound 10 µM",24.1%
same,"viability, T/C",[27],70.7%
same,"viability, T/C",[28],57%
same,"viability, T/C",[29],61%
same,"viability, T/C",[30],71.9%
same,"viability, T/C","second compound 3 µM, first compound 3.16 µM",82.3%
same,"viability, T/C","second compound 3 µM, first compound 10 µM",13.8%
CCN1CCN(Cc2ccc(Nc3ncc(F)c(-c4cc(F)c5nc(C)n(C(C)C)c5c4)n3)nc2)CC1 + CCN1C(C(=O)NC23CCC(C(=O)O)(CC2)CC3)C(c2cccc(Cl)c2F)C2(C(=O)Nc3cc(Cl)ccc32)C12CCCCC2,IC50,[1],> 1000 nM
same,IC50,[2],> 1000 nM
same,IC50,[3],> 1000 nM
same,IC50,[4],> 1000 nM
same,IC50,[5],> 1000 nM
same,IC50,[6],> 1000 nM
same,"viability, T/C","second compound 0.00949 µM, first compound 0.00316 µM",107%
same,"viability, T/C","second compound 0.00949 µM, first compound 0.01 µM",107%
same,"viability, T/C",[7],105%
same,"viability, T/C",[8],86.2%
same,"viability, T/C",[9],68.7%
same,"viability, T/C",[10],77%
same,"viability, T/C","second compound 0.03 µM, first compound 0.00316 µM",103%
same,"viability, T/C","second compound 0.03 µM, first compound 0.01 µM",104%
same,"viability, T/C",[11],96.7%
same,"viability, T/C",[12],84.5%
same,"viability, T/C",[13],69.5%
same,"viability, T/C",[14],65.8%
same,"viability, T/C","second compound 0.0949 µM, first compound 0.00316 µM",118%
same,"viability, T/C","second compound 0.0949 µM, first compound 0.01 µM",112%
same,"viability, T/C",[15],92.2%
same,"viability, T/C",[16],80%
same,"viability, T/C",[17],70.3%
same,"viability, T/C",[18],65.2%
same,"viability, T/C","second compound 0.3 µM, first compound 0.00316 µM",111%
same,"viability, T/C","second compound 0.3 µM, first compound 0.01 µM",104%
same,"viability, T/C",[19],96.6%
same,"viability, T/C",[20],78.9%
same,"viability, T/C",[21],85.1%
same,"viability, T/C",[22],77.1%
same,"viability, T/C","second compound 0.949 µM, first compound 0.00316 µM",99.8%
same,"viability, T/C","second compound 0.949 µM, first compound 0.01 µM",107%
same,"viability, T/C",[23],95.9%
same,"viability, T/C",[24],85.8%
same,"viability, T/C",[25],73.1%
same,"viability, T/C",[26],77.5%
same,"viability, T/C","second compound 3 µM, first compound 0.00316 µM",101%
same,"viability, T/C","second compound 3 µM, first compound 0.01 µM",115%
same,"viability, T/C",[27],97%
same,"viability, T/C",[28],77%
same,"viability, T/C",[29],78%
same,"viability, T/C",[30],78.9%
NC(=O)C(=Cn1cnc(-c2cc(C(F)(F)F)cc(C(F)(F)F)c2)n1)c1cncnc1,"viability, T/C",compound 0.000949 µM,105% and 108% and 73.8%
same,"viability, T/C",compound 0.003 µM,91.3% and 106% and 96.3%
same,"viability, T/C",compound 0.00949 µM,101% and 105% and 88.4%
same,"viability, T/C",compound 0.03 µM,93.7% and 89% and 82.1%
same,"viability, T/C",compound 0.0949 µM,86.4% and 80.2% and 77.3%
same,"viability, T/C",compound 0.3 µM,57.8% and 57% and 75.2%
same,IC50,curve of compound,> 300 nM
Cc1c(S(C)(=O)=O)c(-c2cc(F)cc(N3CCN(c4ccc(NS(=O)(=O)c5ccc(NC(CCN6CCC(C(=O)OCCCP(=O)(O)O)CC6)CSc6ccccc6)c(S(=O)(=O)C(F)(F)F)c5)cc4)CC3)c2)c(-c2ccc(Cl)cc2)n1C(C)C (centres undefined),"viability, T/C",compound 0.0316 µM,107% [middle of 7 runs]
same,"viability, T/C",compound 0.1 µM,107% [middle of 7 runs]
same,"viability, T/C",compound 0.316 µM,98.3% [middle of 7 runs]
same,"viability, T/C",compound 3.16 µM,84.5% [middle of 7 runs]
same,"viability, T/C",compound 10 µM,76.9% [middle of 7 runs]
same,IC50,"compound alone, run of 11/07/2022",> 10000 nM
Cn1ncnc1[C@H]1c2n[nH]c(=O)c3cc(F)cc(c23)N[C@@H]1c1ccc(F)cc1 + CNC(C)C(=O)NC1CN(S(=O)(=O)c2cccc(S(=O)(=O)N3CCC4CCC(C(=O)NC(c5ccccc5)c5ccccc5)N4C(=O)C(NC(=O)C(C)NC)C3)c2)CCC2CCC(C(=O)NC(c3ccccc3)c3ccccc3)N2C1=O,IC50,"curve of first compound, second compound 0.00316 µM",< 0.316 nM
same,IC50,"curve of first compound, second compound 0.01 µM",> 100 nM
same,IC50,"curve of first compound, second compound 0.0316 µM",> 100 nM
same,IC50,"curve of first compound, second compound 0.1 µM",> 100 nM
same,IC50,"curve of first compound, second compound 0.316 µM",> 100 nM
same,IC50,"curve of first compound, second compound 1 µM",> 100 nM
same,"viability, T/C","second compound 0.00316 µM, first compound 0.000316 µM",49.4%
same,"viability, T/C","second compound 0.00316 µM, first compound 0.001 µM",49.2%
same,"viability, T/C","second compound 0.00316 µM, first compound 0.00316 µM",46.2%
same,"viability, T/C","second compound 0.00316 µM, first compound 0.01 µM",47.6%
same,"viability, T/C","second compound 0.00316 µM, first compound 0.0316 µM",49.5%
same,"viability, T/C","second compound 0.00316 µM, first compound 0.1 µM",47.7%
same,"viability, T/C","second compound 0.01 µM, first compound 0.000316 µM",119%
same,"viability, T/C","second compound 0.01 µM, first compound 0.001 µM",92.3%
same,"viability, T/C","second compound 0.01 µM, first compound 0.00316 µM",97.3%
same,"viability, T/C","second compound 0.01 µM, first compound 0.01 µM",90.1%
same,"viability, T/C","second compound 0.01 µM, first compound 0.0316 µM",87.8%
same,"viability, T/C","second compound 0.01 µM, first compound 0.1 µM",85.5%
same,"viability, T/C","second compound 0.0316 µM, first compound 0.000316 µM",107%
same,"viability, T/C","second compound 0.0316 µM, first compound 0.001 µM",93.8%
same,"viability, T/C","second compound 0.0316 µM, first compound 0.00316 µM",87.6%
same,"viability, T/C","second compound 0.0316 µM, first compound 0.01 µM",105%
same,"viability, T/C","second compound 0.0316 µM, first compound 0.0316 µM",92%
same,"viability, T/C","second compound 0.0316 µM, first compound 0.1 µM",91%
same,"viability, T/C","second compound 0.1 µM, first compound 0.000316 µM",94.3%
same,"viability, T/C","second compound 0.1 µM, first compound 0.001 µM",106%
same,"viability, T/C","second compound 0.1 µM, first compound 0.00316 µM",112%
same,"viability, T/C","second compound 0.1 µM, first compound 0.01 µM",97.6%
same,"viability, T/C","second compound 0.1 µM, first compound 0.0316 µM",84%
same,"viability, T/C","second compound 0.1 µM, first compound 0.1 µM",91.7%
same,"viability, T/C","second compound 0.316 µM, first compound 0.000316 µM",103%
same,"viability, T/C","second compound 0.316 µM, first compound 0.001 µM",89.8%
same,"viability, T/C","second compound 0.316 µM, first compound 0.00316 µM",101%
same,"viability, T/C","second compound 0.316 µM, first compound 0.01 µM",92.7%
same,"viability, T/C","second compound 0.316 µM, first compound 0.0316 µM",88.2%
same,"viability, T/C","second compound 0.316 µM, first compound 0.1 µM",89%
same,"viability, T/C","second compound 1 µM, first compound 0.000316 µM",87.5%
same,"viability, T/C","second compound 1 µM, first compound 0.001 µM",90.7%
same,"viability, T/C","second compound 1 µM, first compound 0.00316 µM",94.4%
same,"viability, T/C","second compound 1 µM, first compound 0.01 µM",83.7%
same,"viability, T/C","second compound 1 µM, first compound 0.0316 µM",89.7%
same,"viability, T/C","second compound 1 µM, first compound 0.1 µM",86.3%
